In PubChem BioAssay AID1996:
Converted amounts (≈) assume the structure as drawn.

Settings: buffer; pH 7.4; 200.0 µM

| SMILES | solubility kinetic |
| --- | --- |
| CC(C)C(=O)Nc1ccc([N+](=O)[O-])c(C(F)(F)F)c1 | > 41.4 µg/mL |
| CC(=O)c1ccc(NC(=O)COC(=O)C2CC3C=CC2C3)cc1 (configuration not stated) | > 47 µg/mL |
| COC(=O)c1sccc1NC(=S)Nc1cc(C)ccc1OC | 36.3 µg/mL (≈ 108 µM) |
| CNc1nc2c(N)ncnc2n1[C@H]1O[C@@H](CO)[C@H](O)[C@@H]1O | > 44.4 µg/mL |
| COc1nc(Nc2ccccc2)nc(OC)n1 | > 34.8 µg/mL |
| O=S(=O)(NCCN1CCOCC1)c1cc(Cl)ccc1Cl | 41.6 µg/mL (≈ 123 µM) |
| Cc1sc2ncnc(N)c2c1C | > 26.9 µg/mL |
| CCC1(C)Cc2ccccc2-c2nc(SCC(N)=O)[nH]c(=O)c21 (configuration not stated) | 0.8 µg/mL (≈ 2.43 µM) |
| CS(=O)(=O)c1ccccc1C(=O)Nc1nc2ccccc2[nH]1 | > 47.3 µg/mL |
| Brc1ccc(-c2csc(N3CCOCC3)n2)cc1 | < 0.3 µg/mL |
| O=C(Cc1ccccc1[N+](=O)[O-])OCC(=O)c1ccccc1Br | 39.1 µg/mL (≈ 103 µM) |
| Cc1cccc(N2CCN(Cc3ccc4c(c3)OCO4)CC2)c1C | 4 µg/mL (≈ 12.3 µM) |
| C/C(CC1CC(C)(C)OC1=O)=N\NC(N)=S (configuration not stated) | > 36.5 µg/mL |
| O=C(Cc1cccs1)NC(Cc1c[nH]c2ccccc12)C(=O)O (configuration not stated) | > 49.3 µg/mL |
| COc1ccc(Nc2nccc(-c3ccc(C#N)cc3)n2)cc1 | 0.7 µg/mL (≈ 2.32 µM) |
| O=C(c1ccc(Cl)nc1)N1CCN(C/C=C/c2ccccc2)CC1 | > 51.3 µg/mL |
| COc1ccc(NC(=O)c2c(N)cnn2C)cc1 | > 36.9 µg/mL |
| Cc1ccc(C(=O)Nc2ccc3c(c2)OCCO3)cc1 | 40.4 µg/mL (≈ 150 µM) |
| O=c1c2ccccc2ncn1-c1cccc([N+](=O)[O-])c1 | 3.8 µg/mL (≈ 14.2 µM) |
| O=C(NC1CCCc2ccccc21)N[C@@H](Cc1ccccc1)C(=O)O (some centres not stated) | > 50.8 µg/mL |
| O=C(CN1C(=O)NC2(CCCCC2)C1=O)Nc1ccc2c(c1)CCC2 | 5.1 µg/mL (≈ 14.9 µM) |
| O=C(NCCc1nc2ccccc2[nH]1)c1ccc([N+](=O)[O-])cc1 | 8.7 µg/mL (≈ 28 µM) |
| CN(C)c1cccc(Oc2nc3c(c(=O)n(C)c(=O)n3C)n2C)c1 | 32.4 µg/mL (≈ 98.4 µM) |
| O=C(/C=C/c1ccccc1)Nc1cccnc1 | > 33.6 µg/mL |
| COc1ccc(CNC(=O)c2ccc[nH]2)cc1 | > 34.5 µg/mL |

| SMILES | solubility kinetic |
| --- | --- |
| CSc1nc(N)nc(C2CC2)n1 | 24.4 µg/mL (≈ 134 µM) |
| COC(=O)/C=C1\SC(=NC(=O)c2ccc(OC)cc2)NC1=O | 12 µg/mL (≈ 37.5 µM) |
| Cc1ccccc1NC(=O)COc1cccc2c1CCNC2=O | 46.1 µg/mL (≈ 149 µM) |
| Cc1ccc(SCC(=O)NCc2ccccc2C)cc1 | 35.7 µg/mL (≈ 125 µM) |
| COc1ccc(C(=O)NC2CCCCCC2)cc1S(=O)(=O)N1CCCC1 | 6 µg/mL (≈ 15.8 µM) |
| O=C(O)c1ccccc1NC(=O)C1C2CCC(O2)C1C(=O)O (configuration not stated) | > 45.8 µg/mL |
| Cc1ccccc1OCCC(=O)N1CCN(S(=O)(=O)c2ccccc2F)CC1 | 38.5 µg/mL (≈ 94.7 µM) |
| CC(=O)N1CCN(C(=O)c2cc(C)nc3ccccc23)CC1 | 33.7 µg/mL (≈ 113 µM) |
| O=C(COC(=O)c1ccc(Cl)nc1)Nc1ccc(N2CCCCC2)cc1 | 10.9 µg/mL (≈ 29.2 µM) |
| O=C(Nc1ccc(NC(=O)c2ccco2)cc1)c1ccco1 | 2.5 µg/mL (≈ 8.44 µM) |
| O=C1NC(=S)N/C1=C\c1cccnc1 | > 30.8 µg/mL |
| CCC(NC(C)C)C(O)c1ccc(O)c(O)c1.CS(=O)(=O)O (configuration not stated) | > 50.3 µg/mL |
| CCN(CC)CCOCCOc1ccc(Cl)c2ccccc12 | 32.2 µg/mL (≈ 100 µM) |
| Nc1nc(COc2ccc(F)cc2)nc(N2CCCCC2)n1 | 1.9 µg/mL (≈ 6.26 µM) |
| O=C(O)c1ccccc1CSc1nc2ccccc2[nH]1 | > 42.6 µg/mL |
| O=C(COC(=O)/C=C/c1cccs1)NC1CCCCC1 | 9.4 µg/mL (≈ 32 µM) |
| CC(=O)Nc1ccc(Nc2nc(C)cc(C)n2)cc1 | > 38.4 µg/mL |
| CCOc1ccc(C(=O)CCC(=O)Nc2ccccc2C)cc1 | 4.6 µg/mL (≈ 14.8 µM) |
| Cc1ccccc1C(=O)NCCCNC(=O)c1ccccn1 | > 44.6 µg/mL |
| O=C(O)Cn1c(Cc2ccccc2)nc2ccccc21 | 22.4 µg/mL (≈ 84.1 µM) |
| Cc1cc(=O)oc2cc(NC(=S)NCc3cccnc3)ccc12 | 8.9 µg/mL (≈ 27.4 µM) |
| COc1ccc(N2CCN(c3ccc([N+](=O)[O-])nc3)CC2)cc1 | 3 µg/mL (≈ 9.54 µM) |
| COc1ccc(OC2CCN(S(=O)(=O)c3ccccc3)CC2)cc1 | 4.8 µg/mL (≈ 13.8 µM) |
| Cc1ccc(O)c(NC(=O)c2ccc3c(c2)C(=O)N(CC(C)C)C3=O)c1 | < 0.4 µg/mL |
| Cc1ccc(C(=O)Nc2ccc(NC(=O)c3cccs3)cc2)c(C)c1 | < 0.4 µg/mL |

| SMILES | solubility kinetic |
| --- | --- |
| O=C(NC(=S)Nc1ccccc1)C1CCCCC1 | 0.6 µg/mL (≈ 2.29 µM) |
| CC1CCCN(S(=O)(=O)c2cnc[nH]2)C1 (configuration not stated) | > 34.4 µg/mL |
| Nc1c2c(nn1-c1ccccc1)CCC2 | > 29.9 µg/mL |
| O=C(NCCCNC(=O)c1ccco1)c1ccc(F)cc1 | 42.7 µg/mL (≈ 147 µM) |
| Cc1ccc(Nc2nnc(SC(C)C(=O)NCC3CCCO3)s2)cc1 (configuration not stated) | > 56.8 µg/mL |
| Cc1ccc(C(=O)Nc2ccc(F)c(S(=O)(=O)N3CCOCC3)c2)s1 | 5.3 µg/mL (≈ 13.8 µM) |
| CN(C)c1ccc(CNCC2CCCO2)cc1.Cl (configuration not stated) | > 40.6 µg/mL |
| Cc1ccnc2c1ccc1ccccc12 | < 0.4 µg/mL |
| O=C(O)c1cnn2c(-c3ccccc3)ccnc12 | > 35.9 µg/mL |
| Cc1ccc(OCCCCNC(C)c2ccccc2)c(C)c1 (configuration not stated) | 32.2 µg/mL (≈ 108 µM) |
| Cc1ccc(CN(CCO)CCO)cc1 | 29.4 µg/mL (≈ 140 µM) |
| C=CCn1c(SCC(=O)Nc2cc(C)on2)nnc1-c1ccccc1OC | > 57.8 µg/mL |
| Fc1cccc(Cl)c1CNCc1cccnc1 | > 37.6 µg/mL |
| CCOCCCn1c(=NC(C)=O)c(C#N)cc2c(=O)n3ccccc3nc21 | > 54.8 µg/mL |
| CCc1nc(Nc2cccc(OC)c2)c2oc3ccccc3c2n1.Cl | 0.5 µg/mL |
| O=C(CNC(=O)c1ccc(Cl)cc1)NCc1ccccn1 | > 45.6 µg/mL |
| CCOC(=O)c1sc(NC(=O)CC)c(C#N)c1C | 1.4 µg/mL (≈ 5.26 µM) |
| Fc1ccc2nc(N3CCCC3)sc2c1 | 15.6 µg/mL (≈ 70.2 µM) |
| O=S(=O)(c1ccc2c(c1)CCC2)N1CCNCC1 | > 40 µg/mL |
| COc1cccc(NC(=O)C(=S)NC2CCCCC2)c1 | 1.3 µg/mL (≈ 4.45 µM) |
| O=C(O)c1ccccc1S(=O)(=O)CC(=O)N1CCCCC1 | > 46.7 µg/mL |
| COC(=O)C(CC(=O)O)NCc1ccco1 (configuration not stated) | > 34.1 µg/mL |
| O=C(N/N=C/c1ccccc1O)c1ccncc1 | > 36.2 µg/mL |
| CCN(CC)C(=O)c1ccc(COc2ccc(Cl)c(C)c2)o1 | 10.7 µg/mL (≈ 33.3 µM) |
| CC(C)Cc1nc2oc3c(Cl)ncnc3c2c2c1CCCC2 | < 0.2 µg/mL |

| SMILES | solubility kinetic |
| --- | --- |
| COc1ccc2nc(NC(=O)Nc3ccccc3OC)sc2c1 | 1.4 µg/mL (≈ 4.25 µM) |
| CCCCN(C(=O)c1c(-c2ccccc2)noc1C)c1c(N)n(CCC)c(=O)[nH]c1=O | > 63.8 µg/mL |
| COCC(=O)NC1CCCCCC1 | > 27.8 µg/mL |
| COc1ccc2[nH]c3c(NCCCOC(C)C)ncnc3c2c1 | 44.7 µg/mL (≈ 142 µM) |
| Cc1ccc(F)c(NC(=O)c2c(-c3ccccc3)noc2C)c1 | 2.2 µg/mL (≈ 7.09 µM) |
| O=c1ccccn1CCOc1ccc(Cl)cc1 | > 37.5 µg/mL |
| CCN1CCN(C(=O)/C=C/c2ccc(C(C)C)cc2)CC1 | > 43 µg/mL |
| CCC(=O)Nc1ccc(C(=O)CN2CCC(C)CC2)cc1 | 39.4 µg/mL (≈ 137 µM) |
| C[C@@H](C(=O)OCC(=O)c1ccccc1)N1C(=O)C2CCCCC2C1=O (some centres not stated) | > 51.5 µg/mL |
| CSc1ccccc1NC(=O)CN(C)C(=O)COc1cccc2cccnc12 | > 59.3 µg/mL |
| Cc1ccc2nc(C)cc(C(=O)Nc3nccs3)c2c1 | 19.3 µg/mL (≈ 68.1 µM) |
| Br.c1ccc(NC2=NCCCS2)cc1 | > 41 µg/mL |
| Cc1ccc(-c2csc(NC(=O)c3c(C)noc3C)n2)cc1C | 1.7 µg/mL (≈ 5.19 µM) |
| O=C(CNCc1ccccc1)Nc1ccc(Cl)cc1 | 38.6 µg/mL (≈ 140 µM) |
| Cc1ccc2sc(NC(=O)C3CC3)nc2c1C | 1.3 µg/mL (≈ 5.28 µM) |
| O=C(COC(=O)C1=COCCO1)NCc1ccc(F)cc1 | 40.3 µg/mL (≈ 136 µM) |
| COc1cc(C(=O)NC(c2ccccc2)c2ccccc2)cc(OC)c1OC | < 0.8 µg/mL |
| Cc1nn(CC(=O)N2CCc3ccccc32)c(C)c1S(=O)(=O)NC(C)(C)C | > 58.6 µg/mL |
| COc1ccccc1CNC(=O)COC(=O)c1ccccn1 | > 45 µg/mL |
| Cc1ccc2c(NC(=S)NC(=O)c3ccccc3)cccc2n1 | 11.3 µg/mL (≈ 35.2 µM) |
| Cc1cnc(C(=O)NC(Cc2ccccc2)c2ccccc2)cn1 (configuration not stated) | 0.9 µg/mL (≈ 2.84 µM) |
| O=C(CCC(=O)Nc1cccc(C(F)(F)F)c1)NCC1CCCO1 (configuration not stated) | > 51.6 µg/mL |
| Cc1ccc(N=Cc2cc3c(cc2[N+](=O)[O-])OCO3)cc1[N+](=O)[O-] | 20.5 µg/mL (≈ 62.3 µM) |
| Cc1ccc(NC(=O)Nc2cnc3ccccc3c2)cc1 | 0.3 µg/mL (≈ 1.08 µM) |
| CC(C)NC(=O)CN1CCN(C(=O)CCl)CC1.Cl | > 44.7 µg/mL |

| SMILES | solubility kinetic |
| --- | --- |
| Cc1ccc(S(=O)(=O)n2cccc2C)cc1 | 5.1 µg/mL (≈ 21.7 µM) |
| O=C(c1ccco1)N1CCN(c2ccc([N+](=O)[O-])cc2Cl)CC1 | 3.8 µg/mL (≈ 11.3 µM) |
| O=C(O)/C=C\C(=O)O.c1ccc(Sc2ccccc2CN2CCCC2)cc1 | > 57.8 µg/mL |
| Cc1onc(NC(=O)CSCC(=O)O)c1Br | > 46.4 µg/mL |
| O=C(O)C1CC=CCC1C(=O)NCc1ccc(Cl)c(Cl)c1 (configuration not stated) | > 49.2 µg/mL |
| Cc1ccc(/C=C/C(=O)O)cc1S(=O)(=O)NCc1cccnc1 | 46.9 µg/mL (≈ 141 µM) |
| O=C(/C=C/c1ccco1)Nc1ccc2nc3n(c(=O)c2c1)CCCC3 | 3.7 µg/mL (≈ 11 µM) |
| Cc1ccc(-n2c(C)c(C)c3c(NCCCO)ncnc32)cc1 | > 46.6 µg/mL |
| COC(=O)c1sccc1NC(=O)COc1ccc(F)cc1Cl | < 0.7 µg/mL |
| Cc1ccc(CNC(=O)c2ccc3c(c2)NC(=O)CS3)cc1 | 3.1 µg/mL (≈ 9.92 µM) |
| N#Cc1c(-c2ccco2)ccn(Cc2cccc(F)c2)c1=O | 3.2 µg/mL (≈ 10.9 µM) |
| COc1ccccc1C(=O)NC(=O)Nc1cccc(Cl)c1 | < 0.3 µg/mL |
| CC(OC(=O)c1cccn1C)C(=O)Nc1ccc2c(c1)OCO2 (configuration not stated) | 22.5 µg/mL (≈ 71.1 µM) |
| Cc1nc(SCC(=O)N2CCOCC2)c2c3c(sc2n1)CCC3 | 32.8 µg/mL (≈ 93.9 µM) |
| Cc1cc(NC(=O)COC(=O)CC2CCCC2)c([N+](=O)[O-])cc1C | 3 µg/mL (≈ 8.97 µM) |
| CN(C)/C=C1\N=C(c2cccnc2Oc2ccc(Cl)cc2)OC1=O | 1.6 µg/mL (≈ 4.65 µM) |
| O=C(Nc1nsc(-c2ccccc2)n1)c1ccc(F)cc1 | 32.2 µg/mL (≈ 108 µM) |
| O=C(CNC(=O)c1ccc(-c2ccccc2)cc1)Nc1cccc(CO)c1 | 9.3 µg/mL (≈ 25.8 µM) |
| CCOc1ccccc1C(=O)NCCCCNC(=O)c1ccccc1OCC | 10.2 µg/mL (≈ 26.5 µM) |
| Cc1cc(NC(=O)c2cccc(S(=O)(=O)Nc3cccc(C(=O)O)c3)c2)no1 | > 60.2 µg/mL |
| CN(C)NC(=S)NC1(C)CCS(=O)(=O)C1 (configuration not stated) | > 37.7 µg/mL |
| Cc1cc(Br)ccc1N=C1NC(=O)CS1 | > 42.8 µg/mL |
